In a melting point compilation (Tetko et al.; mined from patent text by program, amines drawn as free bases though some values may be those of a salt):

For `CC(C)=CCC/C(C)=C/CSc1nc2cc(C(F)(F)F)ccc2[nH]1`, the melting point was 106 to 108 °C.
In the case of `CCOC(=O)C1=CN(c2ccc(Cl)c(Cl)c2Cl)N(N)C1`, the melting point is reported as 158 to 159 °C.
Work on `CC12CCC(=O)C=C1CCC1C2=CCC2(C)C(=C=C(Cl)S(=O)c3ccccc3)CCC12` (stereo unspecified) yielded a melting point of 210 to 213 °C.
`O=c1c2ccccc2nnn1CCN1CCC(c2c[nH]c3ccccc23)CC1` gave a melting point of 171 °C.
`COC(=O)c1ccc2oc3c(c(=O)c2c1)CCCC3=Cc1ccccc1` gave a melting point of 168 to 170 °C.
`O=C(NO)c1ccccc1Nc1c(Cl)cccc1Cl` showed a melting point of 171 to 173 °C.
Molecule `COc1cc(-c2nc(C)c(C(=O)O)s2)cc(OC)c1OC` has a melting point of 205 to 207 °C.
`CCC1(CBr)Cc2cc(OC)c3c(c2C(c2ccccc2)=N1)CC(CC)(CC)O3` (stereo unspecified) showed a melting point of 108 to 110 °C.
Molecule `Fc1ccc([C@]2(Cn3nc[nH]c3=S)O[C@H]2c2ccccc2Cl)c(F)c1` (racemic) has a melting point of 180 °C.
Molecule `CCCCCC(=S)SCCC` has a melting point of 55 to 56 °C.
For `COC(=O)c1ccccc1-c1ccc(CNc2nc(=O)[nH]c3ccccc23)cc1`, the melting point was 140 to 160 °C.
In the case of `COc1cc(Cc2cnc(N)nc2N)cc2c(C)ccnc12`, the melting point is reported as 287 to 290 °C.
Work on `COc1ccc(CN(CCN(C)CCCNC(=O)NCCCOc2cccc(CN3CCCCC3)c2)c2ccccn2)cc1` yielded a melting point of 120 °C.
Work on `CNc1coc2cc(NS(C)(=O)=O)c(Oc3ccccc3)cc2c1=O` yielded a melting point of 192 to 193 °C.
`CN(C)CC1CCCCN1CC(=O)N1c2ccccc2C(=O)Nc2cccnc21` (stereo unspecified) showed a melting point of 189 to 190 °C.
In the case of `COc1ccc(N2CCN(c3c(C)c(C)c4c(c3C)C(N3CCCCC3)C(C)(C)O4)CC2)cc1OC` (stereo unspecified), the melting point is reported as 134 to 135 °C.
Work on `CCc1nc2c([C@H](O)CO)cccc2cc1C` yielded a melting point of 66 °C.
Molecule `ON=C(c1ccc(F)cc1)c1cccc2nc(N[C@@H]3CCc4ccccc43)ccc12` has a melting point of 184 °C.
`N#Cc1c2ccccc2c(C=O)c2ccccc12` showed a melting point of 270 to 275 °C.
With `CC(=O)Nc1ccc(C2=NNC(=O)Cc3cc4c(cc32)OCO4)cc1` the melting point was 177 to 180 °C.
For `CCC1(CC(=O)O)OCCc2c1[nH]c1c(C(C)C)cccc21` (stereo unspecified), the melting point was 158 to 159 °C.
`Cc1cccc2c1N(CCN(C(C)C)C(C)C)C(=O)C2=O` showed a melting point of 92 to 93 °C.
Work on `COc1ccc(CCNC(=O)N(OC(C)=O)C(C)(C)C)cc1OC` yielded a melting point of 123 to 125 °C.
Work on `CCCCCCCCCC(C)NC(=O)C=C(C)c1cccc([N+](=O)[O-])c1` (stereo unspecified) yielded a melting point of 72.5 to 74 °C.
With `c1ccc(CCC2CCN(Cc3c[nH]c4ncccc34)CC2)cc1` the melting point was 162 to 163 °C.
Molecule `O=c1[nH]c2cc(F)ccc2c(=O)n1-c1ccccc1` has a melting point of 304 to 306 °C.
For `CCC(O)c1ccc(-c2cccc(COc3ccc(CO)c(CO)c3)c2)c(C)c1` (stereo unspecified), the melting point was 78 °C.
With `O=C(NC(O)C(F)(F)F)c1snc(Cl)c1Cl` (stereo unspecified) the melting point was 90 to 93 °C.
With `C#Cc1c(C#N)nn(-c2c(Cl)cc(C(F)(F)F)cc2Cl)c1N(C)C` the melting point was 145 to 147 °C.
Molecule `COC(=O)CCCc1cc2cc(C(F)(F)F)ccc2n1S(=O)(=O)c1cccc(C(C)C)c1` has a melting point of 115 °C.
Molecule `OCc1csc(NC2CCCCC2)n1` has a melting point of 118 to 120 °C.
Work on `CCCCCS(=O)(=O)NC(=O)CCc1ccc(OCCOC)cc1OCc1nc(-c2ccccc2)oc1C` yielded a melting point of 95.9 to 96.7 °C.
`CCCc1nc(C=O)c[nH]1` showed a melting point of 104 to 106 °C.
`O=C1CCC(c2ccccc2)(c2ccccc2)[C@@H]2CN(C(=O)Cc3ccc(F)cc3)C[C@H]12` (racemic) gave a melting point of 210 °C.
In the case of `CCn1c(=O)c(=O)[nH]c2cc([N+](=O)[O-])c(-n3cccc3)cc21`, the melting point is reported as greater than 300 °C.
`N#Cc1cc(F)c(NN)cc1F` showed a melting point of 158 °C.
For `O=C1CCN(CCc2ccccc2)CC1C(c1ccccc1)c1ccccc1` (stereo unspecified), the melting point was 73 to 76 °C.
Molecule `COc1cc(OC)c(-c2ccc(O)c(C34CC5CC(CC(C5)C3)C4)c2)cc1C=C1SC(C2CCNC2)=NC1=O` (stereo unspecified) has a melting point of 343 to 345 °C.
`O=C1Nc2ccccc2CCC1(Cl)Cl` showed a melting point of 185 to 187 °C.
`CC(C)CN(Cc1nc(-c2ncn3c2CN(C)C(=O)c2c(Cl)cccc2-3)no1)CC(C)C` showed a melting point of 125 to 128 °C.
With `CCOP(=O)(/C=C/c1nc(-c2ccccc2)oc1COc1ccc(OCc2nc(-c3ccccc3)oc2C)cc1)OCC` the melting point was 124 to 125 °C.
`CC(=O)Oc1ccc(-c2cnc(C)nc2Cl)cc1OC(C)=O` gave a melting point of 111 °C.
With `COc1ccc(-c2c(Cl)ncnc2NS(=O)(=O)c2ccc(OC)cc2)cc1` the melting point was 165 to 167 °C.
In the case of `CC(C)N(C(=O)CN1C(=O)CC(=O)N(c2ccccc2)c2ccccc21)c1ccccc1`, the melting point is reported as 199 to 200 °C.
For `CCOC(=O)c1cc(S(=O)(=O)N2CCN(CC)CC2)cnc1OCC`, the melting point was 66 to 68 °C.
With `Cc1ccc2c(c1)c(N1CCN(C(=O)c3cccs3)CC1)c(C#N)c(=O)n2Cc1ccc(F)cc1` the melting point was 274 °C.
For `COC(=O)c1cnc(Cl)c(C)n1`, the melting point was 49 to 50 °C.
`N#CCCNC(=O)c1ccnc(-c2cccc3nn(Cc4cccc(C(F)(F)F)c4)cc23)c1` gave a melting point of 147 to 148 °C.
`Cc1cc(C)cc(NC(=O)CN2CCN(c3ncccc3C#N)CC2)c1` gave a melting point of 139 to 140 °C.
`Cc1ccc(Cc2cnc(NCCCN(C)c3ncc(Br)cn3)[nH]c2=O)cn1` showed a melting point of 137 to 140 °C.
For `Cc1ccc(C)c2oc(CN3CCC[C@@H](OCc4cc(C(F)(F)F)cc(C(F)(F)F)c4)[C@H]3c3ccccc3)nc12` (relative stereo), the melting point was 109 to 110 °C.
For `CC1CC(=O)N(CCO)N=C1c1ccc2c(c1)CCC(=O)N2C` (stereo unspecified), the melting point was 171 to 173 °C.
With `Cc1nn(C)c2ncc3c(c12)CCC(C)C3` (stereo unspecified) the melting point was 92 to 101 °C.
`CC(Oc1ccc(Oc2ncc(Cl)cc2F)cc1)C(=O)NC=C(C#N)C#N` (stereo unspecified) showed a melting point of 129 to 131 °C.
For `Cc1cc2cc(CN3CCC(C(=O)N(C)C)CC3)cnc2cc1NC(=O)c1ccc(-c2ccc(F)cc2)cc1`, the melting point was 229 °C.
With `CC(C)=CCn1nc(C(=O)c2cccc(O)c2)c2ccccc21` the melting point was 92 to 94 °C.
In the case of `CC(C)=NOCCCn1cnc2c(N)nc3cccnc3c21`, the melting point is reported as 120 to 121 °C.
`CCCN(CCC)CCCC1CCN(CCNC(=O)N2c3ccccc3C(=O)Nc3cccnc32)CC1` gave a melting point of 169 to 170 °C.
In the case of `C#CCc1c(C)nc(N)[nH]c1=O`, the melting point is reported as 245 to 249 °C.
`Cn1nnc2cc(OC3SCC(O)C(O)C3O)ccc21` (stereo unspecified) gave a melting point of 220 °C.
`CC(C)(C)OC(=O)Nc1ccc2c3c(cc([N+](=O)[O-])c2c1)N(C(=O)C(F)(F)F)CC3CCl` (stereo unspecified) gave a melting point of 219 to 220 °C.
`Cc1nc2c(o1)CCc1ccccc1C2=Cc1cccc(NS(C)(=O)=O)c1` showed a melting point of 185 °C.
`Fc1ccc(F)c(C=C2CCNc3nc(Br)ccc32)c1` gave a melting point of 178 to 179 °C.
In the case of `O=C1NCC(CCc2ccccc2Cl)O1` (stereo unspecified), the melting point is reported as 74 to 75 °C.
With `O=C(N[C@H]1CC[C@H](CCN2CCN(c3nccc4c3OCC4)CC2)CC1)c1ccc(-n2cccc2)cc1` the melting point was 236 °C.
In the case of `COc1c(N2CCC(NC(=O)OC(C)(C)C)C2)c(F)cc2c(=O)c(C(=O)O)cn(C3CC3)c12` (stereo unspecified), the melting point is reported as 224 to 226 °C.
For `CCCCCCCCCc1ccc(S(N)(=O)=O)cc1`, the melting point was 94.5 to 95.2 °C.
`O=C1Cc2c(Cl)cccc2Sc2c(F)cccc21` gave a melting point of 128 to 130 °C.
With `CCCCCCCCCCc1ccc2cc(O)c(SC)cc2c1` the melting point was 65.5 to 66 °C.
In the case of `O=C(Nc1ccc2ccc(Cl)nc2n1)c1cccc(F)c1`, the melting point is reported as 202 °C.
For `CC(C)CN1CCc2ccc(C(=O)CCC(=O)N3CCC(c4ccc(Cl)cc4)CC3)cc2CC1`, the melting point was 137 to 138 °C.
`CC(C)C(=O)N=c1ccn(-c2ccccc2)nc1` gave a melting point of 138 °C.
In the case of `CC(C(=O)O)c1ccc(-c2ccc(Br)cc2F)cc1` (stereo unspecified), the melting point is reported as 137 to 139 °C.
For `C=CCc1cc(C#N)ccc1O`, the melting point was 70 °C.
In the case of `Cc1cc2nc3c(nc2cc1[N+](=O)[O-])SC(C#N)=C(C#N)S3`, the melting point is reported as 155 to 157 °C.
Molecule `COc1cc(-c2ncnc(OC)c2Cl)c(F)cc1Cl` has a melting point of 142 to 143 °C.
With `CCc1nc(C(=O)O)c(Cl)c(N)c1F` the melting point was 144 to 145 °C.
In the case of `CSc1cc(C(C)C)c(NC(=O)C2c3ccccc3COc3ccc(C)cc32)c(C(C)C)c1` (stereo unspecified), the melting point is reported as 126 °C.
Work on `COc1ccccc1NC(=O)c1nc2c(s1)CN(C)CC2` yielded a melting point of 196 to 198 °C.
With `CC(=O)N1CCC(Oc2c(F)c(F)c(F)c(F)c2F)(c2ccccc2)CC1` the melting point was 115 to 120 °C.
Work on `Nc1nc(-c2cc(Cl)ccc2Cl)nc(N2CCCC2)n1` yielded a melting point of 191 to 193 °C.
Molecule `Cc1ccc(-c2ccc(C(=O)Nc3ccc4nc(CN5CCCC5)ccc4c3)cn2)cc1` has a melting point of 207 to 209 °C.
`O=C1Nc2ccccc2C(c2ccccc2)N1CC1CCN(Cc2ccccc2)CC1` (stereo unspecified) showed a melting point of 163 to 165 °C.
With `CNS(=O)(=O)c1cc(C)ccc1C=C1c2ccccc2CCc2ccccc21` the melting point was 175 °C.
In the case of `Cc1nnc(-c2ccc3occ(-c4cc(F)ccc4F)c3c2)o1`, the melting point is reported as 143 to 144 °C.
For `O=C(O)c1ccc(C(=O)O)c(-c2nc3ccccc3o2)c1`, the melting point was 284 °C.
`CCOC(=O)c1cc(NCc2ccccc2)c(Oc2ccc(OCc3ccccc3)cc2)c(S(N)(=O)=O)c1` gave a melting point of 166 °C.
In the case of `O=C(Nc1ccc(N2CCOCC2)cc1)c1ccccc1C(c1ccc(O)cc1)c1ccc(O)cc1`, the melting point is reported as 151 to 155 °C.
In the case of `COc1cc2c(cc1OC)C(=O)C(C(=O)C(F)(F)F)CS2` (stereo unspecified), the melting point is reported as 148 to 151 °C.
Molecule `O=C1c2ccccc2C(=O)N1OCCOCc1ccccc1F` has a melting point of 62 to 64 °C.
With `CCOC(=O)c1cc(=O)c2ccccc2[nH]1` the melting point was 210 to 212 °C.
With `S=c1cc(-c2nc[nH]n2)oc2ccccc12` the melting point was 232 °C.
Molecule `O=C(O)CCNc1ccccc1CNC(=O)C1Cc2ccccc2N1S(=O)(=O)c1ccc(-c2ccc(F)cc2F)cc1` (stereo unspecified) has a melting point of 106 to 110 °C.
Molecule `COc1nc(-c2ccc(F)cc2)nc(-c2ccccn2)n1` has a melting point greater than 270 °C.
Molecule `N#Cc1cnc2c(c1Cl)C=C1N=CN=C1C2` has a melting point greater than 300 °C.
Work on `CNC1CN(CCO)CCN1c1ncc(SC)c(Cl)n1` (stereo unspecified) yielded a melting point of 120 to 122 °C.
Molecule `NC(=O)CCC(=O)NCCS` has a melting point of 173 °C.
In the case of `CC(C)OC(=O)Cn1c(=O)n(C)c(=O)n(-c2cc(N=c3sc(=O)n4n3CCCC4)c(F)cc2Cl)c1=O`, the melting point is reported as 97 to 107 °C.
With `COc1cc(C2c3cc4c(cc3C(NC3=CC(=O)N(C)C3=O)C3COC(=O)C23)OCO4)cc(OC)c1O` (stereo unspecified) the melting point was 238 to 241 °C.
`CN(C)C[C@H]1CC[C@H](CCNc2ncc(Br)cn2)CC1` gave a melting point of 108 to 110 °C.
Molecule `CCNC(C)c1cc(S(N)(=O)=O)sc1S(=O)(=O)CC` (stereo unspecified) has a melting point of 135 to 138 °C.
